Measured values as given in US20260217701A1, “SELECTIVE BET INHIBITORS AND USES THEREOF” (Tay Therapeutics Limited, priority 2022, published 2026).
“And” between values parts separate entries of the source, which are not always exact repeats. Identical values can stand only once. Like-named read-outs stand apart in the source and are kept apart here.

Tests used:
IL-17A = IL-17A release from activated human PBMCs (ELISA); assay type: cell-based
Procedure: Human PBMCs used to analyze inhibition of CXCL10 were collected from 8 donors, PBMCs used to analyze inhibition of IL-17A were collected from 7 donors, and PBMCs used to analyze inhibition of IL-22 were collected from 6 donors. Compounds were serially diluted in 10 mM DMSO and further diluted in assay media to 100× the required final concentration, of which 2 μL was added to the specified well. […] The cell culture supernatant was collected and levels of IL-17A and IL-22 in the supernatant were assessed by ELISA (Invitrogen).

BRD4 BD2 = biological target: T1, BRD4 BD2 (Homo sapiens, UniProt O60885); assay: NanoBRET bromodomain assay, NanoLuc-BRD4-BD2 in HEK293 cells; assay type: binding; conditions: for Selectivity (BD1/BD2) / BD2: nanoBRET assay, given as symbol only; for Selectivity (BD1/BD2): higher number denotes higher selectivity; for BD2: lower number denotes higher potency
T1 construct: HEK293 cells were transfected using NanoLuc-BRD4-BD1 or NanoLuc-BRD4-BD2 fusion vectors
Procedure: Plates were then incubated at 37° C.+5% CO2 incubator for 2 hours.
Fold Selectivity Calculated (IC50 BD1/IC50 BD2).

BRD4 BD1 = biological target: T2, BRD4 BD1 (Homo sapiens, UniProt O60885); assay: NanoBRET bromodomain assay, NanoLuc-BRD4-BD1 in HEK293 cells; assay type: binding
T2 construct: HEK293 cells were transfected using NanoLuc-BRD4-BD1 or NanoLuc-BRD4-BD2 fusion vectors

Cn1cc(-c2ccccc2)c(-c2cn(C)c(=O)c3[nH]c(-c4cnn(C(F)(F)F)c4)cc23)cc1=O [Compound A, 6-methyl-4-(1-methyl-2-oxo-5-phenyl-1,2-dihydropyridin-4-yl)-2-(1-(trifluoromethyl)-1H-pyrazol-4-yl)-1,6-dihydro-7H-pyrrolo[2,3-c]pyridin-7-one]
potency against IL-17A relative to CXCL10 (IL-17A): about 13,000 fold | Biomarker selectivity (IL-17 vs. CXCL10) (IL-17A; Average preliminary biomarker assay): 3492 Fold | Percent Inhibition Relative to Control (IL-17A) (IL-17A; Compound Conc. 0.000137174 μM, Donors 1-7, two values per donor): 30.76% and 39.93% and 12.53% and 17.16% and 22.57% and 38.63% and 4.46% and 42.02% and 55.02* Percent and 40.50% and 25.91% and 19.06% and 25.23% and 32.91% | Percent Inhibition Relative to Control (IL-17A) (IL-17A; Compound Conc. 0.000411523 μM, Donors 1-7, two values per donor): 42.92% and 60.88% and 49.48% and 23.24% and 46.54% and 52.23% and 60.62% and 51.01% and 51.11% and 62.34% and 51.68% and 47.46% and 28.29% and 56.37% | Percent Inhibition Relative to Control (IL-17A) (IL-17A; Compound Conc. 0.001234568 μM, Donors 1-7, two values per donor): 56.92% and 75.17% and 53.28% and 57.9% and 62.54% and 63.56% and 62.80% and 67.54% and 70.18% and 58.60% and 66.13% and 59.19% and 60.91% and 75.98% | Percent Inhibition Relative to Control (IL-17A) (IL-17A; Compound Conc. 0.011111111 μM, Donors 1-7, two values per donor): 75.17% and 74.77% and 72.8% | Percent Inhibition Relative to Control (IL-17A) (IL-17A; Compound Conc. 0.033333333 μM, Donors 1-7, two values per donor): 76.69% and 83.98% and 75.68% and 76.46% and 73.03% and 78.96% and 78.00% and 81.52% and 83.08% and 69.43% and 73.08% and 77.7% and 78.81% and 89.99% | Percent Inhibition Relative to Control (IL-17A) (IL-17A; Compound Conc. 0.1 μM, Donors 1-7, two values per donor): 80.29% and 80.05% and 78.2% and 79.86% and 80.34% and 80.42% and 83.72% and 86.56% and 80.96% and 85.39% and 77.87% and 84.04% and 85% | Percent Inhibition Relative to Control (IL-17A) (IL-17A; Compound Conc. 1.52416E−05 μM, Donors 1-7, two values per donor): −2.11% and 5.95% and 4.5% and 4.36% and −0.57% and 6.2% and −11.47% and 18.94% and 28.57% and 13.94% and 37.95% and −8.34% and 0.61% and 18.05% | Percent Inhibition Relative to Control (IL-17A) (IL-17A; Compound Conc. 4.57247E−05 μM, Donors 1-7, two values per donor): −1.00% and 28.73% and 7.45% and 18.97% and 13.64% and 16.93% and −0.28% and 32.68% and 27.06% and 28.89% and 20.58% and 2.83% and 7.11% and 42.94% | IC50 (IL-17A; Homo sapiens, PBMC, Average preliminary biomarker assay, read-out: IL-17A IC50 Mean): 0.3 nM | inhibition at 0.1 µM (IL-17A; Homo sapiens, PBMC, Compound Conc. 0.1 μM, Donors 1-7, two values per donor, read-out: Percent Inhibition Relative to Control (IL-17A)): 80.8% | IC50 (IL-17A; Homo sapiens, PBMC, Preliminary biomarker assay, Test Subject 1, read-out: IL-17A IC50): 0.2 nM | IC50 (IL-17A; Homo sapiens, PBMC, Preliminary biomarker assay, Test Subject 2, read-out: IL-17A IC50): 0.3 nM | IC50 (IL-17A; Homo sapiens, PBMC, Preliminary biomarker assay, Test Subject 3, read-out: IL-17A IC50): 0.4 nM | IC50 (IL-17A; Homo sapiens, PBMC, ELISA, read-out: Selectivity (IC50) IL-17A): 0.271 nM | IC50, inhibition of release of IL-17A (IL-17A; human PBMCs, 72 hours): sub-nanomolar | effectiveness relative to GSK620 in reducing IL-17A, IL-22 and CXCL10 (IL-17A; preliminary biomarker assays): more effective than GSK620 | selectivity for BDII relative to GSK620 (BRD4 BD2): greater than about two orders of magnitude | Selectivity (BD1/BD2) (BRD4 BD2): >>>> | BD2 (BRD4 BD2): < | EC50 (BRD4 BD2; previously determined, reference level for rat plasma concentrations (FIG. 4D), read-out: free EC50 BD2 BRD4 (converted)): 18.9 nM | EC50 (BRD4 BD2; reference level for dog plasma concentrations (Dog PK study #4), read-out: free EC50 BD2 BRD4 (converted)): 14.5 nM | EC50 (BRD4 BD2; stated with the CIA study PK, domain not stated, read-out: free EC50 (converted)): 17.2 nM | EC50 (BRD4 BD1; previously determined, reference level for rat plasma concentrations (FIG. 4D), read-out: free EC50 BD1 (converted)): 182000 nM | EC50 (BRD4 BD1; reference level for dog plasma concentrations (Dog PK study #4), read-out: free EC50 BD1 BRD4): 139000 nM

COCCn1cc(-c2ccccc2)c(-c2cn(C)c(=O)c3[nH]c(-c4cnn(C(F)(F)F)c4)cc23)cc1=O [Compound B, 4-(1-(2-methoxyethyl)-2-oxo-5-phenyl-1,2-dihydropyridin-4-yl)-6-methyl-2-(1-(trifluoromethyl)-1H-pyrazol-4-yl)-1,6-dihydro-7H-pyrrolo[2,3-c]pyridin-7-one]
Selectivity (BD1/BD2) (BRD4 BD2): >>>> | BD2 (BRD4 BD2): ≤
